Literature values in patent publication US10822400B2, “Dynamin 2 inhibitor for the treatment of Duchenne's muscular dystrophy” (UNIVERSITE DE STRASBOURG, priority 2015, dated 2020).

Tests used:
dynamin 2 = target: T1, dynamin 2 (Homo sapiens, UniProt P50570); conditions: read-out: IC50 for inhibition of dynamin 2 (dynamin II)
T1 sequence (P50570 1-870): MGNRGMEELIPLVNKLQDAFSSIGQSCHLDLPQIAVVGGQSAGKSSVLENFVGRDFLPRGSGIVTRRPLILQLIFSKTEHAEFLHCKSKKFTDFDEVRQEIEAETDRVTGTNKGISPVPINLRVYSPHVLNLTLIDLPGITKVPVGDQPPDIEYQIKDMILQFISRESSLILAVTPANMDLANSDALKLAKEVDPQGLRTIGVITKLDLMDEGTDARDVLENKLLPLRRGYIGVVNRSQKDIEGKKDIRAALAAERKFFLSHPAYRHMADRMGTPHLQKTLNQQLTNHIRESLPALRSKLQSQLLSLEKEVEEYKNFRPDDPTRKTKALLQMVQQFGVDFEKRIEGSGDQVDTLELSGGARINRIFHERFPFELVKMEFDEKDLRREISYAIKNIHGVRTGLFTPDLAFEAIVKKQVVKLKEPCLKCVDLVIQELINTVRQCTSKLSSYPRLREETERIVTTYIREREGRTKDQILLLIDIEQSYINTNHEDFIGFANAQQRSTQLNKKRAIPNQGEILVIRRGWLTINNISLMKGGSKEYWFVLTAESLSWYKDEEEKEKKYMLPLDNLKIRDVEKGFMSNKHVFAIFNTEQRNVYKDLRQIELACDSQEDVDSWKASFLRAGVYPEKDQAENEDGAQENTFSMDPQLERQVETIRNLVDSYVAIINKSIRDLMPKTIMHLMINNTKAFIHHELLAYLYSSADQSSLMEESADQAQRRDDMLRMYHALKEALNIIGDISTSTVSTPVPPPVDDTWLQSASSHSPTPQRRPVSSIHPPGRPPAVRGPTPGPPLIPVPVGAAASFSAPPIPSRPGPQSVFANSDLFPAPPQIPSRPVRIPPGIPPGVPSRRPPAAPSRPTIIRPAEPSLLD

mitochondrial division = conditions: read-out: IC50 as mitochondrial division inhibitor
[1] = target: receptor-mediated and synaptic vesicle endocytosis; conditions: read-out: IC50 for inhibition of receptor-mediated and synaptic vesicle endocytosis

## O=C(NN=Cc1cc(O)c(O)cc1O)c1cc2ccccc2cc1O [Hydroxy-Dynasore, 3-Hydroxy-N′-[(2,4,5-trihydroxyphenyl)methylidene]naphthalene-2-carbohydrazide]
Dynamin 2
  IC50: 2600 nM

## COc1cc(-n2c(S)nc3ccccc3c2=O)c(Cl)cc1Cl [M-divi 1, 3-(2,4-Dichloro-5-methoxyphenyl)-2-sulfanylquinazolin-4(3H)-one]
Mitochondrial division
  IC50: 10000 nM

## CCCCCCCCCCCCCC[N+](C)(C)C [MiTMAB, Tetradecyltrimethylammonium bromide]
[1]
  IC50: 2200 nM
